{"source": "paper PMC5218480", "about": "(PLoS ONE, 2017)", "test_system": "MV-4-11 cells", "assay": "Gene expression microarray analysis (Affymetrix PrimeView) and GSEA", "format": "cell-based, human", "design": "RFU PODN (11730768_x_at) / Fold change /veh PODN (11730768_x_at) / RFU LINC00158 (11744669_a_at) / Fold change /veh LINC00158 (11744669_a_at) / RFU DUSP10 (11751237_a_at) / Fold change /veh DUSP10 (11751237_a_at) / RFU ID3 (11757404_x_at) / Fold change /veh ID3 (11757404_x_at) / RFU PLEKHG5 (11737974_s_at) / Fold change /veh PLEKHG5 (11737974_s_at) / RFU LRRC4B (11730491_at) / Fold change /veh LRRC4B (11730491_at) / RFU GIMAP4 (11747438_a_at) / Fold change /veh GIMAP4 (11747438_a_at) / RFU KRT8 (11758183_x_at) / Fold change /veh KRT8 (11758183_x_at) / RFU CNN1 (11734310_a_at) / Fold change /veh CNN1 (11734310_a_at) / RFU VPS37D (11726825_at) / Fold change /veh VPS37D (11726825_at) / RFU C10orf10 (11716522_x_at) / Fold change /veh C10orf10 (11716522_x_at) / RFU KIR2DL2 /// KIR2DL4 /// KIR2DL5A /// KIR2DL5B /// KIR2DS1 /// KIR2DS2 /// KIR2DS3 /// KIR2DS4 /// KIR3DL3 /// KIR3DL3 /// KIR3DS1 (11738374_at) / Fold change /veh KIR2DL2 /// KIR2DL4 /// KIR2DL5A /// KIR2DL5B /// KIR2DS1 /// KIR2DS2 /// KIR2DS3 /// KIR2DS4 /// KIR3DL3 /// KIR3DL3 /// KIR3DS1 (11738374_at) / RFU C1QL1 (11718748_at) / Fold change /veh C1QL1 (11718748_at) / RFU TMPRSS4 (11747572_a_at) / Fold change /veh TMPRSS4 (11747572_a_at) / RFU HAMP (11756126_x_at) / Fold change /veh HAMP (11756126_x_at) / RFU RNFT2 (11725882_a_at) / Fold change /veh RNFT2 (11725882_a_at) / RFU NR4A2 (11747474_a_at) / Fold change /veh NR4A2 (11747474_a_at) / RFU ABCC12 (11746883_a_at) / Fold change /veh ABCC12 (11746883_a_at) / RFU TMEM136 (11760407_x_at) / Fold change /veh TMEM136 (11760407_x_at) / RFU CLDN22 /// WWC2 (11732394_at) / Fold change /veh CLDN22 /// WWC2 (11732394_at) / RFU HLA-DPB1 (11760878_x_at) / Fold change /veh HLA-DPB1 (11760878_x_at) / RFU SPINT1 (11716480_a_at) / Fold change /veh SPINT1 (11716480_a_at) / RFU GAP43 (11754022_s_at) / Fold change /veh GAP43 (11754022_s_at) / RFU A4GNT (11735810_at) / Fold change /veh A4GNT (11735810_at) / RFU PRB3 (11715151_x_at) / Fold change /veh PRB3 (11715151_x_at) / RFU TUBB4B (11761932_at) / Fold change /veh TUBB4B (11761932_at) / RFU CAPN14 (11732068_a_at) / Fold change /veh CAPN14 (11732068_a_at) / RFU TMCC2 (11721928_a_at) / Fold change /veh TMCC2 (11721928_a_at) / RFU IRGQ (11745062_a_at) / Fold change /veh IRGQ (11745062_a_at) / RFU FAM174B (11720279_a_at) / Fold change /veh FAM174B (11720279_a_at) / RFU TMPRSS4 (11748680_a_at) / Fold change /veh TMPRSS4 (11748680_a_at) / RFU FAM212B (11763350_a_at) / Fold change /veh FAM212B (11763350_a_at) / RFU PLEKHG5 (11743358_a_at) / Fold change /veh PLEKHG5 (11743358_a_at) / RFU ZSCAN30 (11745921_a_at) / Fold change /veh ZSCAN30 (11745921_a_at) / RFU CMKLR1 (11741424_a_at) / Fold change /veh CMKLR1 (11741424_a_at) / RFU LOC101060620 /// MAPK8IP1 (11723275_at) / Fold change /veh LOC101060620 /// MAPK8IP1 (11723275_at) / RFU SPTSSB (11747773_x_at) / Fold change /veh SPTSSB (11747773_x_at) / RFU PRSS12 (11739890_at) / Fold change /veh PRSS12 (11739890_at) / RFU BIN1 (11741810_x_at) / Fold change /veh BIN1 (11741810_x_at) / RFU WNT11 (11732464_a_at) / Fold change /veh WNT11 (11732464_a_at) / RFU C10orf10 (11716521_a_at) / Fold change /veh C10orf10 (11716521_a_at) / RFU C5orf56 (11738089_at) / Fold change /veh C5orf56 (11738089_at) / RFU CYB561 (11721691_x_at) / Fold change /veh CYB561 (11721691_x_at) / RFU ANKRD19P (11752326_a_at) / Fold change /veh ANKRD19P (11752326_a_at) / RFU OR2T12 /// OR2T33 /// OR2T8 (11738714_s_at) / Fold change /veh OR2T12 /// OR2T33 /// OR2T8 (11738714_s_at) / RFU VCAN (11748164_a_at) / Fold change /veh VCAN (11748164_a_at) / RFU JSRP1 (11732532_at) / Fold change /veh JSRP1 (11732532_at) / RFU KRTAP10-11 (11738290_x_at) / Fold change /veh KRTAP10-11 (11738290_x_at) / RFU MYO3A (11730013_a_at) / Fold change /veh MYO3A (11730013_a_at) / RFU EBF3 (11725865_a_at) / Fold change /veh EBF3 (11725865_a_at) / RFU CAMK2N1 (11719241_x_at) / Fold change /veh CAMK2N1 (11719241_x_at) / RFU C5orf56 (11738088_a_at) / Fold change /veh C5orf56 (11738088_a_at) / RFU OLFML3 (11715873_a_at) / Fold change /veh OLFML3 (11715873_a_at) / RFU LOC100653217 /// NTM (11731650_a_at) / Fold change /veh LOC100653217 /// NTM (11731650_a_at) / RFU MAPK11 (11762145_a_at) / Fold change /veh MAPK11 (11762145_a_at) / RFU FIZ1 (11724087_x_at) / Fold change /veh FIZ1 (11724087_x_at) / RFU OASL (11726364_x_at) / Fold change /veh OASL (11726364_x_at) / RFU SOX15 (11748057_x_at) / Fold change /veh SOX15 (11748057_x_at) / RFU CD79A (11719716_a_at) / Fold change /veh CD79A (11719716_a_at) / RFU HIST1H1D (11736915_at) / Fold change /veh HIST1H1D (11736915_at) / RFU CASKIN2 (11723855_a_at) / Fold change /veh CASKIN2 (11723855_a_at) / RFU LOC730098 (11760151_x_at) / Fold change /veh LOC730098 (11760151_x_at) / RFU OR4N2 (11742367_at) / Fold change /veh OR4N2 (11742367_at) / RFU PRRT2 (11749266_a_at) / Fold change /veh PRRT2 (11749266_a_at) / RFU SNX32 (11753110_a_at) / Fold change /veh SNX32 (11753110_a_at) / RFU CDHR5 (11726645_a_at) / Fold change /veh CDHR5 (11726645_a_at) / RFU RCAN1 (11760418_a_at) / Fold change /veh RCAN1 (11760418_a_at) / RFU FAM167A (11723789_a_at) / Fold change /veh FAM167A (11723789_a_at) / RFU FAM26E (11764081_at) / Fold change /veh FAM26E (11764081_at) / RFU ISYNA1 (11749810_s_at) / Fold change /veh ISYNA1 (11749810_s_at) / RFU ACY1 (11761880_at) / Fold change /veh ACY1 (11761880_at) / RFU 11764098_at / Fold change /veh 11764098_at / RFU SAMD14 (11745864_x_at) / Fold change /veh SAMD14 (11745864_x_at) / RFU NPB (11741838_a_at) / Fold change /veh NPB (11741838_a_at) / RFU TMPRSS6 (11731388_a_at) / Fold change /veh TMPRSS6 (11731388_a_at) / RFU KRTAP10-2 (11738614_at) / Fold change /veh KRTAP10-2 (11738614_at) / RFU ARHGAP8 /// PRR5-ARHGAP8 (11727945_x_at) / Fold change /veh ARHGAP8 /// PRR5-ARHGAP8 (11727945_x_at) / RFU KRTAP5-7 /// NADSYN1 (11734609_at) / Fold change /veh KRTAP5-7 /// NADSYN1 (11734609_at) / RFU RASL12 (11751679_a_at) / Fold change /veh RASL12 (11751679_a_at) / RFU CDKN2B (11736163_a_at) / Fold change /veh CDKN2B (11736163_a_at) / RFU PRF1 (11729649_at) / Fold change /veh PRF1 (11729649_at) / RFU, ZNF638 /// ZNF638-IT1 / Fold change vs veh, ZNF638 /// ZNF638-IT1 / RFU, PANK3 / Fold change vs veh, PANK3 / RFU, SH3YL1 / Fold change vs veh, SH3YL1 / RFU, ZEB2 / Fold change vs veh, ZEB2 / RFU, NRIP1 / Fold change vs veh, NRIP1 / RFU, PTTG1IP / Fold change vs veh, PTTG1IP / RFU, CAPN2 / Fold change vs veh, CAPN2 / RFU, MED14 / Fold change vs veh, MED14 / RFU, SNORA58 / Fold change vs veh, SNORA58 / RFU, C1orf63 / Fold change vs veh, C1orf63 / RFU, LRRFIP1 / Fold change vs veh, LRRFIP1 / RFU, NDUFAF7 / Fold change vs veh, NDUFAF7 / RFU, SLC12A2 / Fold change vs veh, SLC12A2 / RFU, IBTK / Fold change vs veh, IBTK / RFU, ESF1 / Fold change vs veh, ESF1 / Fold change vs veh, TMEM50B / RFU, TAOK1 / Fold change vs veh, TAOK1 / RFU, ACBD3 / Fold change vs veh, ACBD3 / RFU, TMA16 / Fold change vs veh, TMA16 / RFU, RWDD3 / Fold change vs veh, RWDD3 / RFU, BCAT1 / Fold change vs veh, BCAT1 / RFU, EDEM3 / Fold change vs veh, EDEM3 / RFU, TMEM33 / Fold change vs veh, TMEM33 / RFU, WDR75 / Fold change vs veh, WDR75 / RFU, AHCTF1 / Fold change vs veh, AHCTF1 / RFU, TFRC / Fold change vs veh, TFRC / RFU, ZDHHC17 / Fold change vs veh, ZDHHC17 / RFU, NOM1 / Fold change vs veh, NOM1 / RFU, ARL8B / Fold change vs veh, ARL8B / RFU, ZBTB11 / Fold change vs veh, ZBTB11 / RFU, TAMM41 / Fold change vs veh, TAMM41 / RFU, KIAA1704 /// LOC100996395 / Fold change vs veh, KIAA1704 /// LOC100996395 / RFU, ING1 / Fold change vs veh, ING1 / RFU, TRMT61B / Fold change vs veh, TRMT61B / RFU, FUBP3 / Fold change vs veh, FUBP3 / RFU, TP53 / Fold change vs veh, TP53 / RFU, TNKS2 / Fold change vs veh, TNKS2 / RFU, ZFP14 / Fold change vs veh, ZFP14 / RFU, ACTR2 / Fold change vs veh, ACTR2 / RFU, PPP3R1 / Fold change vs veh, PPP3R1 / RFU, PIK3R1 / Fold change vs veh, PIK3R1 / RFU, HNRNPA1 / Fold change vs veh, HNRNPA1 / RFU, RNF170 / Fold change vs veh, RNF170 / RFU, ZNF28 / Fold change vs veh, ZNF28 / RFU, RNGTT / Fold change vs veh, RNGTT / RFU, OGT / Fold change vs veh, OGT / RFU, BRD1 / Fold change vs veh, BRD1 / RFU, MARS / Fold change vs veh, MARS / RFU, ZNF655 / Fold change vs veh, ZNF655 / RFU, FAHD1 / Fold change vs veh, FAHD1 / RFU, BDP1 / Fold change vs veh, BDP1 / RFU, LRRCC1 / Fold change vs veh, LRRCC1 / RFU, ARID1A / Fold change vs veh, ARID1A / RFU, ZNF146 / Fold change vs veh, ZNF146 / RFU, ZNF330 / Fold change vs veh, ZNF330 / RFU, GPN3 / Fold change vs veh, GPN3 / RFU, C9orf123 / Fold change vs veh, C9orf123 / RFU, N4BP2L2 / Fold change vs veh, N4BP2L2 / RFU, ARFIP1 / Fold change vs veh, ARFIP1 / RFU, FAM179B / Fold change vs veh, FAM179B / RFU, BCL10 / Fold change vs veh, BCL10 / RFU, UHRF1BP1L / Fold change vs veh, UHRF1BP1L / RFU, BET1 / Fold change vs veh, BET1 / RFU, CNOT2 / Fold change vs veh, CNOT2 / RFU, ZNF268 / Fold change vs veh, ZNF268 / Fold change vs veh, ZNF507 / RFU, DGCR2 / Fold change vs veh, DGCR2 / RFU, WDSUB1 / Fold change vs veh, WDSUB1 / Fold change vs veh, HSP90B1 /// MIR3652 / RFU, ADSS / Fold change vs veh, ADSS / RFU, GK / Fold change vs veh, GK / RFU, ZNF148 / Fold change vs veh, ZNF148 / RFU, TAF9 / Fold change vs veh, TAF9 / RFU, SLC1A5 / Fold change vs veh, SLC1A5 / RFU, SLMO2 / Fold change vs veh, SLMO2 / RFU, ABCC4 / Fold change vs veh, ABCC4 / RFU, LOC101060439 /// RAP1B / Fold change vs veh, LOC101060439 /// RAP1B / RFU, RFX7 / Fold change vs veh, RFX7 / RFU, GTPBP10 / Fold change vs veh, GTPBP10 / RFU, CNEP1R1 / Fold change vs veh, CNEP1R1 / RFU, BIVM-ERCC5 /// ERCC5 / Fold change vs veh, BIVM-ERCC5 /// ERCC5 / RFU, ILF3 / Fold change vs veh, ILF3 / RFU 11762660_at / Fold change /veh 11762660_at / RFU VCAN (11757783_s_at) / Fold change /veh VCAN (11757783_s_at) / RFU DDX43 (11728927_at) / Fold change /veh DDX43 (11728927_at) / RFU KRT8 (11758188_x_at) / Fold change /veh KRT8 (11758188_x_at) / RFU NKD1 (11759106_at) / Fold change /veh NKD1 (11759106_at) / RFU SRD5A1 (11742802_a_at) / Fold change /veh SRD5A1 (11742802_a_at) / RFU TPSAB1 /// TPSB2 (11721975_s_at) / Fold change /veh TPSAB1 /// TPSB2 (11721975_s_at) / RFU GSTM3 (11746129_a_at) / Fold change /veh GSTM3 (11746129_a_at) / RFU IL23R (11737362_x_at) / Fold change /veh IL23R (11737362_x_at) / RFU TMEM51 (11727254_a_at) / Fold change /veh TMEM51 (11727254_a_at) / RFU PIWIL2 (11732686_x_at) / Fold change /veh PIWIL2 (11732686_x_at) / RFU ORM1 (11744905_x_at) / Fold change /veh ORM1 (11744905_x_at) / RFU CCDC152 (11743942_at) / Fold change /veh CCDC152 (11743942_at) / RFU ECM1 (11717891_a_at) / Fold change /veh ECM1 (11717891_a_at) / RFU IL23R (11748794_a_at) / Fold change /veh IL23R (11748794_a_at) / RFU TNFAIP8L3 (11732012_x_at) / Fold change /veh TNFAIP8L3 (11732012_x_at) / RFU MBOAT4 (11741988_at) / Fold change /veh MBOAT4 (11741988_at) / RFU 11764193_at / Fold change /veh 11764193_at / RFU TMEM53 (11763286_at) / Fold change /veh TMEM53 (11763286_at) / RFU MAGEB2 (11727129_at) / Fold change /veh MAGEB2 (11727129_at) / RFU TMEM200A (11744735_a_at) / Fold change /veh TMEM200A (11744735_a_at) / RFU CCDC152 (11751479_a_at) / Fold change /veh CCDC152 (11751479_a_at) / RFU FAM211A (11726209_a_at) / Fold change /veh FAM211A (11726209_a_at) / RFU RGS16 (11746705_a_at) / Fold change /veh RGS16 (11746705_a_at) / RFU VCAN (11755009_s_at) / Fold change /veh VCAN (11755009_s_at) / RFU RHOB (11743442_s_at) / Fold change /veh RHOB (11743442_s_at) / RFU RGS16 (11720943_a_at) / Fold change /veh RGS16 (11720943_a_at) / RFU RGS16 (11720944_at) / Fold change /veh RGS16 (11720944_at) / RFU, VPS4B / Fold change vs veh, VPS4B / RFU, CREB1 / Fold change vs veh, CREB1 / RFU, DNAJC13 / Fold change vs veh, DNAJC13 / RFU, GNAQ / Fold change vs veh, GNAQ / RFU, CDK5R1 / Fold change vs veh, CDK5R1 / RFU, ZRANB3 / Fold change vs veh, ZRANB3 / RFU, CUL4A / Fold change vs veh, CUL4A / RFU, CCNY / Fold change vs veh, CCNY / RFU, UFL1 / Fold change vs veh, UFL1 / RFU, COG3 / Fold change vs veh, COG3 / RFU, DIAPH2 / Fold change vs veh, DIAPH2 / RFU, SKA2 / Fold change vs veh, SKA2 / RFU, AFF3 / Fold change vs veh, AFF3 / RFU, LMF1 / Fold change vs veh, LMF1 / RFU, IPO11 / Fold change vs veh, IPO11 / RFU, DFFB / Fold change vs veh, DFFB / RFU, FOXP1 / Fold change vs veh, FOXP1 / RFU, CARD8 / Fold change vs veh, CARD8 / RFU, STRN3 / Fold change vs veh, STRN3 / RFU, ADK / Fold change vs veh, ADK / RFU, RASSF2 / Fold change vs veh, RASSF2 / RFU, WIPF1 / Fold change vs veh, WIPF1 / RFU, LARP1B / Fold change vs veh, LARP1B / RFU, RASA1 / Fold change vs veh, RASA1 / RFU, RB1 / Fold change vs veh, RB1 / RFU, PPFIA1 / Fold change vs veh, PPFIA1 / RFU, MAT2A / Fold change vs veh, MAT2A / RFU, CCT5 / Fold change vs veh, CCT5 / RFU, WDR92 / Fold change vs veh, WDR92 / RFU, CUX1 / Fold change vs veh, CUX1 / RFU, TTC7A / Fold change vs veh, TTC7A / RFU, TMEM135 / Fold change vs veh, TMEM135 / RFU, DEPTOR / Fold change vs veh, DEPTOR / RFU, CPM / Fold change vs veh, CPM / RFU, DNAJB6 / Fold change vs veh, DNAJB6 / RFU, CACNA2D3 / Fold change vs veh, CACNA2D3 / RFU, DTX4 / Fold change vs veh, DTX4 / RFU, TFCP2 / Fold change vs veh, TFCP2 / RFU, GMCL1 /// GMCL1P1 / Fold change vs veh, GMCL1 /// GMCL1P1 / RFU, AEBP2 / Fold change vs veh, AEBP2 / RFU, SNHG1 /// SNORD22 /// SNORD25 /// SNORD26 /// SNORD27 /// SNORD28 /// SNORD29 /// SNORD31 / Fold change vs veh, SNHG1 /// SNORD22 /// SNORD25 /// SNORD26 /// SNORD27 /// SNORD28 /// SNORD29 /// SNORD31 / Fold change (Aza/veh), C12orf56 (ProbeSet 11735607_a_at) / Fold change (ACY-1035/veh), C12orf56 (ProbeSet 11735607_a_at) / Fold change (Aza/veh), FGFR1OP (ProbeSet 11751329_s_at) / Fold change (ACY-1035/veh), FGFR1OP (ProbeSet 11751329_s_at) / Fold change (Aza/veh), VPS36 (ProbeSet 11739960_a_at) / Fold change (ACY-1035/veh), VPS36 (ProbeSet 11739960_a_at) / RFU SYPL1 (11715823_x_at) / Fold change /veh SYPL1 (11715823_x_at) / RFU IGFBP7 (11715501_s_at) / Fold change /veh IGFBP7 (11715501_s_at) / RFU REEP3 (11722064_at) / Fold change /veh REEP3 (11722064_at) / RFU IGLL1 (11728026_x_at) / Fold change /veh IGLL1 (11728026_x_at): dose or concentration left out as unconfirmed", "conditions": "MV-4-11 cells, 48 hours", "data": [{"compound": "Nc1ccc(-c2cccs2)cc1NC(=O)c1ccc2c(c1)cc(C1CC1)n2CCN1CCOCC1", "note": "[ACY-1035]", "values": [{"measurement": "RFU CAPN14 (11732068_a_at)", "result": 10.99, "unit": "RFU"}]}]}
